Test [1] has as its target T1, MIF (Homo sapiens, UniProt P14174).
T1 sequence (P14174 2-115 limits assumed): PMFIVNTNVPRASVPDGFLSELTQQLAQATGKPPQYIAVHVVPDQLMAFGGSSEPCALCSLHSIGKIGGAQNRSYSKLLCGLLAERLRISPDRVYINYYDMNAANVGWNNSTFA
Kind of test: MIF degradation in HEK293 cells, western-blot. Format: cell-based. Further details: endogenous in cells. To be noted: 200 nM.

The target in test [2] is T1, MIF. The test is described as follows: MIF degradation in A549 cells, cell lysate-based ELISA. Further details: endogenous in cells; host or cells: A549 (ATCC CCL-185). The note with it: A549 cells; for degradation [%] 2 μM: vs DMSO, mean±SD n=3. As to the method:
In addition, A549 cells have been successfully used for assessing activity of cereblon ligand‐based PROTACs previously.[42] Therefore, A549 is a suitable cell line for evaluating the effect of our putative MIF‐directed PROTACs MD1 to MD12 on MIF protein levels. The reduction in MIF levels were monitored in A549 cells that were treated with two different PROTAC concentrations (20 and 2 μM) for 12 h in order to estimate the dose dependency, which is important for PROTACs because of the Hook effect.[35] The MIF levels in cell lysates were analyzed using an enzyme‐linked immunosorbent assay (ELISA).
S3. ELISA screening of MIF protein level on MIF-directed PROTACs
Cell culture. Human A549 lung cancer cells (ATCCCCL-185) or HEK293 kidney […]
containing 10% (v/v) fetal bovine serum (FBS), 100 U/mL penicillin/streptomycin […]
ELISA. 7×10^5 A549 cells per well were plated in 6-well plates. The next day, cells were treated with a solution of compounds or the vehicle for 12 h. Subsequently, the culture medium was removed and cells were washed twice with cold PBS and collected after trypsin (0.5 mL) degestion. Cells were then lyzed in lysis buffer (150 mM NaCl, 50 mM Hepes pH 7.5, 5 mM EDTA, 0.1% (w/v) NP40) containing protease inhibitor cocktail (Roche, #11836153001) and resuspended vigourously. The supernatant was collected after spinning down at 16 000g at 4 °C for 30 min. The total protein concentration was determined with PierceTM BCA protein assay kit ( ThermoFisher , #23225). The protein concentration was normalized between samples. The relative MIF levels from 1µg total protein were determined by ELISA with the human MIF DuoSet ELISA kit according to the instructions of the manufacturer (R&D systems, #DY289).
Figure S1. Screening of compounds for MIF degradation activity by cell lysate -based ELISA.
A549 cells were treated with compounds at (A) 20 or (B) 2 µM for 12 h. Data was normalized […]
(1 picture or pasted object on this page, not shown here)
(ELISA stands for enzyme-linked immunosorbent assay.)

For test [3], the target named is T1, MIF. Described as above. To be noted: 12 h, vs DMSO, mean±SD n=3. Further details: endogenous in cells; host or cells: A549 (ATCC CCL-185).
For test [4], the target named is T1, MIF. Kind of test: MIF immunofluorescence staining, confocal microscopy. The test is classed as cell-based. To be noted: A549 cells, 1 μM, 12 hours. Further details: endogenous in cells; host or cells: A549 (ATCC CCL-185). An excerpt:
Since PROTACs are relatively large heterobifunctional molecules, the efficacy of these compounds may be limited by poor cell permeability.[47] In order to estimate the cellular uptake of PROTAC MD13, the intrinsic fluorescence properties of the pomalidomide part of MD13 were employed for visualization of its subcellular localization. […] In parallel, the subcellular localization of MIF and its decrease in situ upon MD13 treatment was visualized by confocal fluorescence microscopy using a fluorescent secondary antibody.
S5. Subcellular colocalization study
To visualize the intracellular location of MD13 and MIF protein, immunofluorescence staining was applied. A549 cells were seeded on glass coverslips in a 6-well plate at a density of 1x10^5 cells per well. After overnight incubation, cells were treated with 1 µM MD13 for 1 hour to study the internalization of MD13 or 12 hours to study the degradation of MIF protein.
The cells with 1-hour treatment were fixed with methanol before coverslips were mounted onto slides with anti-fading mounting medium with DAPI stain (Invitrogen, Waltham, MA. USA).
To visualize MIF protein, cells after 12-hour treatment were fixed with methanol and then unspecific binding was blocked with blocking buffer (1% BSA, 22.52 mg/mL glycine in 0.1%PBST). […]
USA). […] The pictures were acquired using a Leica SP8 confocal laser scanning microscope and analyzed by ImageJ. […]

Values joined by “and” are separate entries in the source; they are usually repeats but may differ in a detail not shown here. Identical values can stand only once.

For orientation: DC50 means the midpoint of the concentration-degradation curve. As for `O=C1CCC(N2C(=O)c3cccc(NCCCCCCCC(=O)Nc4ccc(N5Cc6ccc(O)cc6OC5=O)cc4)c3C2=O)C(=O)N1` (centres unmarked) [MD13], the MIF degradation result at MIF [1] is reported as “more than 90%”. Further, the “degradation [%] 2 μM” value on MIF [2] (12 h) is 91% and 91±5%. At MIF [2] (12 h, ELISA, read-out: DC50), the half-maximal degradation concentration (DC50) is about 0.2 µM. For the same molecule, the Hook effect entry on MIF [2] (at 20 μM, ELISA and western-blot) was “Hook effect”. Further, the “degradation [%] 0.2 μM” value at MIF [3] is 71% and 71±7%. Moreover, the “MIF depletion in situ” value at MIF [4] is given as “significantly depleted MIF”.
On to `CN1C(=O)CCC(N2C(=O)c3cccc(NCCCCCCCC(=O)Nc4ccc(N5Cc6ccc(O)cc6OC5=O)cc4)c3C2=O)C1=O` (centres unmarked) [MD15], for which the “degradation [%] 2 μM” value on MIF [2] (12 h) was “not capable of inducing MIF degradation and n.s”. For the same molecule, the “degradation [%] 0.2 μM” value on MIF [3] was “not capable of inducing MIF degradation and n.s”.

The values are drawn from article PMC8362126, “Proteolysis Targeting Chimera (PROTAC) for Macrophage Migration Inhibitory Factor (MIF) Has Anti‐Proliferative Activity in Lung Cancer Cells” (Angewandte Chemie (International Ed. in English), 2021).
